d = 2'-deoxy (DNA); r = 2'-OH (RNA)
What was measured:
Type in all cases: cell-based, human
TCTP [1] = assay: TCTP mRNA and protein expression tests in LNCaP and PC3 cells
Protocol: TCTP mRNA and protein expression tests were carried out in LNCaP and PC3 cells exposed to a TCTP ASO of SEQ ID NO: 2 or a TCTP siRNA of SEQ ID NO: 3.

LNCaP-Mock cells = assay: Crystal violet cell growth assay, LNCaP-Mock cells
Protocol: (§1) In brief, cells were seeded in each well of 12-well microtiter plates (30 000 to 50 000 cells per well) and allowed to attach overnight. To study the effect of TCTP downregulation on apoptosis induced by docetaxel, PC-3 cells were transiently transfected the day after seeding with 5 nM of TCTP siRNA for 48 h or 100 nM of TCTP ASO for 72 h. Cells were then treated with 50 nM of docetaxel and MTT assays were performed after 24 h. To assess the effect of TCTP downregulation on Hsp27 cytoprotection, LNCaP-Mock and -Hsp27 cells were transiently transfected the day after seeding with 5 nM of TCTP siRNA for 48 h. The down- or upregulation of TCTP effect on LNCaP and C4-2 cell viability was realized after transient transfections with 100 nM of TCTP ASO or 0.02 μg/μl of pDEST-TCTP for 72 h and 48 h respectively. Cells were then treated with 1 nM of docetaxel in serum-free media (mimics androgen withdrawal in vitro) and crystal violet assays were performed the day after. Each assay was performed in triplicate.
In order to study consequences of TCTP inhibition on cell survival after combined androgen withdrawal and docetaxel-chemotherapy treatment, cell viability of LNCaP-Mock and -Hsp27 was determined using crystal violet dye after 24 h treatment with 1 nM of docetaxel in serum-free media (mimics androgen withdrawal in vitro). […]

PC-3 cells = assay: MTT cell growth assay, PC-3 cells; settings: for enhancement of docetaxel sensitivity: PC-3 cells, 50 nM docetaxel 24 h, MTT
Protocol: as §1
To assess the effect of TCTP down-regulation on CR cell growth, PC-3 cells were treated for 1 day with 5 nM TCTP siRNA or for 2 days with 100 nM TCTP ASO. At the end of the treatment, PC-3 cells were incubated with 50 nM of docetaxel. Growth rates of PC-3 cells were examined using the 3-(4,5-dimethylthiazol-2-yl)-2,5-diphenyltetrazolium bromide assay. […] The effect of the inhibition of TCTP on cell survival was analyzed in PC-3 after combined ASO and docetaxel-chemotherapy treatment. After 24 h of treatment with 50 nM of docetaxel, cell viability was determined using a MTT assay. The experiment was repeated in triplicate. *** differs from PC-3 transfected with control-siRNA (P50.001) using Statview software. […] The same effect has been observed with TCTP siRNA (SEQ ID NO: 3) and 5′-[…]-3′ (SEQ ID NO: 14) and 5′-[…]-3′ (SEQ ID NO: 15) ASOs.
PC3 cells were transfected with a TCTP siRNA of SEQ ID NO: 3. Cell proliferation and apoptosis were studied using respectively MTT (3-(4,5-dimethylthiazol-2-yl)-2,5-diphenyl tetrazolium bromure) assay and flow cytometry.
PC3 cells were transfected with a TCTP ASO of SEQ ID NO: 2. Cell proliferation and apoptosis were studied using respectively MTT assay and flow cytometry.

TCTP [2] = assay: ASO sequences screening: TCTP expression by western blot and/or qRT-PCR; settings: WB and/or qRT-PCR, PC-3 cells overexpressing TCTP
Protocol: Western Blot analysis was performed as described previously (Rocchi et al., 2004, Cancer Res. 64:6595-602) with 1:5000 rabbit anti-Hsp27 polyclonal antibody (Assay Designs, Villeurbanne, France), 1:2000 rabbit TCTP polyclonal antibody (Abcam Inc., Cambridge, UK), 1:250 rabbit anti-MSL1v1 polyclonal antibody (Abcam Inc.), 1:500 mouse anti-ubiquitin monoclonal antibody (Santa Cruz Biotechnology Inc., Heidelberg, Germany) or 1:1000 rabbit anti-caspase-3 polyclonal antibody (Cell Signalling Technology Inc., Danvers, USA). Loading levels were normalized using 1:5000 rabbit anti-glyceraldehyde-3-phosphate dehydrogenase polyclonal (Abcam Inc.) or 1:2500 mouse anti-vinculine monoclonal antibodies (Sigma Chemical Co., St Louis, Mo., USA).
The quantitative reverse transcription polymerase chain reaction (qRT-PCR) analysis was done on a LightCycler detection system (Roche Applied Science, Meylan, France). Expression levels of 18S subunit of the ribosome gene were used as an internal control. First strand cDNA was synthesized from 1 μg of total RNA using random hexamers and expanded by reverse transcriptase according to the manufacturer's instructions (ImProm-II Reverse Transcription System, Promega, Charbonniéres-les-Bains, France), subsequently diluted 1:10 with water, and stored at −20° C. until use. TCTP and 18S polymerase chain reaction (PCR) products were detected by quantitative real time PCR (qRT-PCR) using the SYBR Premix Ex Taq (Takara Bio Inc, St Germain en Laye, France) following the manufacturer's instructions. Five microliters of diluted cDNA template were mixed with 10 μl SYBR Premix Ex Taq (including Taq polymerase, reaction buffer, MgCl2, SYBR green I dye, and deoxynucleotide triphosphate mix) and 0.4 μM forward and reverse primers, in a final volume of 20 μl. The following primers were used: TCTP forward 5′-[…]-3′ (SEQ ID NO: 8) and TCTP reverse 5′-[…]-3′; (SEQ ID NO: 9); 18S forward 5′-[…]-3′ (SEQ ID NO: 10) and 18S reverse 5′-[…]-3′ (SEQ ID NO: 11). After an initial Taq activation for 10 seconds at 95° C., Light Cycler PCR was done using 55 cycles with the following cycling conditions: 95° C. for 5 seconds, 58° C. for 7 seconds, and 72° C. for 14 seconds. Each sample was analyzed in duplicate and the experiment was repeated three times. Results were analyzed using RealQuant data analysis software (Roche, Neuilly-sur-seine, France). The results analysis was done with the 2(-Delta Delta C(T)) Method (Livak K J. et al., 2001; Methods. 25:402-8).
In order to find a sequence ASO having an inhibiting effect on TCTP expression, 30 ASO sequences have been designed 26 of which are shown in table 1. Said 30 sequences cover the TCTP mRNA (accession number NM_003295). Using BLAST program, the specificity of said sequences has been studied. Among said 30 sequences, only 15 sequences have been identified as being specific for TCPT mRNA sequence (see table 1). The effect of said ASO sequences on TCTP expression was tested by western blot analysis (WB) and/or by quantitative reverse transcription polymerase chain reaction (qRT-PCR) on PC-3 cells overexpressing TCTP. WB and qRT-PCR were performed as exposed in example 1.

Substance	expression of TCTP (mRNA and protein) (TCTP [1])	reduction in LNCaP-Mock cell growth rate (LNCaP-Mock cells; siRNA 5 nM alone, compared with control) [%]	reduction in LNCaP-Mock cell growth rate (LNCaP-Mock cells; siRNA plus 1 nM docetaxel in serum-free medium, 24 h) [%]	reduction in PC-3 cell growth (PC-3 cells; 5 nM siRNA alone, 4 days after treatment, compared to scrambled control) [%]	enhancement of docetaxel sensitivity (PC-3 cells)	decrease of proliferation of PC3 cells (PC-3 cells; TCTP siRNA, MTT assay (summary, FIG. 12)) [%]	ability to inhibit TCTP expression (TCTP [2])	best ability to inhibit specifically TCTP expression (TCTP [2])	decrease of proliferation of PC3 cells (PC-3 cells; TCTP ASO, MTT assay (summary, FIG. 13)) [%]
5′-AACCCGUCCGCGAUCUCCCdGdG-3′ (AACCCGUCCGCGAUCUCCCGG; siRNA; sugars from the 5' end r19 d2, backbone not given here) [TCTP siRNA, from Qiagen]	decreases in a significant manner	40	50	55	same effect	48.1	–	–	–
5′-ACCAATGAGCGAGTCATCAA-3′ (phosphorothioate backbone, further chemistry not given here) [ASO10]	decreases in a significant manner	–	–	–	up to 25%	–	strong ability to inhibit TCTP expression	best ability to inhibit specifically TCTP expression	58
